Results reported in patent US8759366B2, “Aminopyrimidines as SYK inhibitors” (Merck Sharp & Dohme Corp., priority 2009, dated 2014).
pIC50: −log10 of the molar value.

Biological target: rhSYK (Homo sapiens (Human), UniProt P43405)
Settings: read-out: rhSYK activity

Row | SMILES | pIC50
1 | Cc1cc(Nc2nccc(C(F)(F)F)n2)cc(-c2cnc(C3CCC3)s2)c1 [13-1] | 6.00 to 7.00
2 | COC(=O)NS(=O)(=O)N1CCC(O)(c2ncc(-c3cc(C)cc(Nc4nccc(OC)n4)c3)s2)CC1 [54(1), Methyl {[4-hydroxy-4-(5-{3-[(4-methoxypyrimidin-2-yl)amino]-5-methylphenyl}-1,3-thiazol-2-yl)piperidin-1-yl]sulfonyl}carbamate] | > 7.00
3 | COc1ccnc(Nc2cc(C)cc(-c3cnc(C4(Cl)CCN(S(N)(=O)=O)CC4)s3)c2)n1 [54(2), 4-Chloro-4-(5-{3-[(4-methoxypyrimidin-2-yl)amino]-5-methylphenyl}-1,3-thiazol-2-yl)-piperidine-1-sulfonamide] | > 7.00
4 | CC(O)(CO)c1ncc(-c2cccc(Nc3nccc(C(F)(F)F)n3)c2)s1 (centres unmarked) [Ex 5-1] | > 7.00
5 | Cc1cc(Nc2nccc(C(F)(F)F)n2)cc(-c2cnc(C(C)(O)C(C)(C)O)s2)c1 (centres unmarked) [Ex 5-4] | > 7.00
6 | Cc1cc(Nc2ncc(Cl)c(C)n2)cc(-c2cnc(C(C)(O)CO)s2)c1 (centres unmarked) [Ex 5-14] | > 7.00
7 | COc1nc(Nc2cc(C)cc(-c3cnc(C(C)(O)CO)s3)c2)ncc1Cl (centres unmarked) [Ex 5-19] | > 7.00
8 | Cc1cc(Nc2ncc(Cl)cn2)cc(-c2cnc(C(O)(CO)CO)s2)c1 [Ex 5-20] | 6.00 to 7.00
9 | OC1(c2ncc(-c3cc(Nc4nccc(C(F)(F)F)n4)ccc3F)s2)CCC1 [Example 1, 1-[5-(2-fluoro-5-{[4-(trifluoromethyl)pyrimidin-2-yl]amino}phenyl)-1,3-thiazol-2-yl]cyclobutanol] | 6.00 to 7.00
10 | OC1(c2ncc(-c3cc(Nc4nccc(C(F)(F)F)n4)cc(C(F)(F)F)c3)s2)CCC1 [Example 2, 1-{5-[3-(trifluoromethyl)-5-{[4-(trifluoromethyl)pyrimidin-2-yl]amino}phenyl]-1,3-thiazol-2-yl}cyclobutanol] | 6.00 to 7.00
11 | OC1(c2ncc(-c3cc(Cl)cc(Nc4nccc(C(F)(F)F)n4)c3)s2)CCC1 [Example 3, 1-[5-(3-chloro-5-{[4-(trifluoromethyl)pyrimidin-2-yl]amino}phenyl)-1,3-thiazol-2-yl]cyclobutanol] | 6.00 to 7.00
12 | Cc1cc(Nc2nccc(C(F)(F)F)n2)cc(-c2cnc(C(C)(C)O)s2)c1 [Example 4, 2-[5-(3-methyl-5-{[4-(trifluoromethyl)pyrimidin-2-yl]amino}phenyl)-1,3-thiazol-2-yl]propan-2-ol] | > 7.00
13 | OC(c1ncc(-c2cccc(Nc3nccc(C(F)(F)F)n3)c2)s1)(C(F)(F)F)C(F)(F)F [Example 4A-3] | > 7.00
14 | CC(C)(O)c1ncc(-c2cc(Br)cc(Nc3nccc(C(F)(F)F)n3)c2)s1 [Example 4A-4, 2-[5-(3-bromo-5-{[4-(trifluoromethyl)pyrimidin-2-yl]amino}phenyl)-1,3-thiazol-2-yl]propan-2-ol] | > 7.00
15 | OC(c1ncc(-c2cccc(Nc3nccc(C(F)(F)F)n3)c2)s1)C1CC1 (centres unmarked) [Example 4A-5, cyclopropyl[5-(3-{[4-(trifluoromethyl)pyrimidin-2-yl]amino}phenyl)-1,3-thiazol-2-yl]methanol] | > 7.00
16 | Cn1ccc(C(C)(O)c2ncc(-c3cccc(Nc4nccc(C(F)(F)F)n4)c3)s2)c1 (centres unmarked) [Example 4A-16] | > 7.00
17 | Cc1cc(Nc2nccc(C(F)(F)F)n2)cc(-c2cnc(C(O)CCc3c[nH]cn3)s2)c1 (centres unmarked) [Example 4A-40, 3-(1H-imidazol-4-yl)-1-[5-(3-methyl-5-{[4-(trifluoromethyl)pyrimidin-2-yl]amino}phenyl)-1,3-thiazol-2-yl]propan-1-ol] | > 7.00
18 | CSc1ccc(C(C)(O)c2ncc(-c3cc(C)cc(Nc4nccc(C(F)(F)F)n4)c3)s2)cc1 (centres unmarked) [Example 4A-57, 1-[4-(methylsulfanyl)phenyl]-1-[5-(3-methyl-5-{[4-(trifluoromethyl)pyrimidin-2-yl]amino}phenyl)-1,3-thiazol-2-yl]ethanol] | 6.00 to 7.00
19 | O=C1C[C@@H]2C[C@@](O)(c3ncc(-c4cccc(Nc5nccc(C(F)(F)F)n5)c4)s3)C[C@@H]2C1 [Example 4B-7] | 6.00 to 7.00
20 | CC1(C)CC(O)(c2ncc(-c3cccc(Nc4nccc(C(F)(F)F)n4)c3)s2)CC(C)(C)S1 [Example 4B-8] | 5.00 to 6.00
21 | OC1(c2ncc(-c3cccc(Nc4nccc(C(F)(F)F)n4)c3)s2)CC2CCC1N2 (centres unmarked) [Example 4B-10] | 6.00 to 7.00

Row | SMILES | pIC50
22 | OC1(c2ncc(-c3cccc(Nc4nccc(C(F)(F)F)n4)c3)s2)COC1 [Example 4B-11] | > 7.00
23 | Cc1cc(Nc2nccc(C(F)(F)F)n2)cc(-c2cnc(C3(O)COC3)s2)c1 [Example 4B-12] | > 7.00
24 | Cc1cc(Nc2nccc(C(F)(F)F)n2)cc(-c2cnc(C3(O)CCOCC3)s2)c1 [Example 4B-13] | > 7.00
25 | Cc1cc(Nc2nccc(C(F)(F)F)n2)cc(-c2cnc(C3(O)COC(C)(C)OC3)s2)c1 [Example 4B-14] | > 7.00
26 | Cc1cc(Nc2nccc(C(F)(F)F)n2)cc(-c2cnc(C3(O)CCC4(CC3)OCCO4)s2)c1 [Example 4B-15, 8-[5-(3-methyl-5-{[4-(trifluoromethyl)pyrimidin-2-yl]amino}phenyl)-1,3-thiazol-2-yl]-1,4-dioxaspiro[4.5]decan-8-ol] | > 7.00
27 | COc1ccnc(Nc2cc(C)cc(-c3cnc(C4(O)CCC5(CC4)OCCO5)s3)c2)n1 [Example 4B-16] | > 7.00
28 | Cc1cc(Nc2nccc(C(F)(F)F)n2)cc(-c2cnc(C3(O)CCCC4CC43)s2)c1 (centres unmarked) [Example 4B-18] | > 7.00
29 | Cc1cc(Nc2nccc(C(F)(F)F)n2)cc(-c2cnc(C3(O)C[C@H]4CC(=O)C[C@H]4C3)s2)c1 (some centres unmarked) [Example 4B-20] | > 7.00
30 | Cc1cc(Nc2nccc(C)n2)cc(-c2cnc(C3(O)CCC(C(=O)O)[C@@H]4CCCC[C@H]43)s2)c1 (some centres unmarked) [Example 4B-21] | > 7.00
31 | Cc1cc(Nc2nccc(C)n2)cc(-c2cnc(C3(O)CCC(C(=O)O)[C@H]4CCCC[C@@H]43)s2)c1 (some centres unmarked) [Example 4B-23] | > 7.00
32 | Cc1cc(Nc2nccc(C(F)(F)F)n2)cc(-c2cnc(C3(O)CCC4(CCC(=O)N4)CC3)s2)c1 (centres unmarked) [Example 4B-24] | > 7.00
33 | Cc1cc(Nc2nccc(C(F)(F)F)n2)cc(-c2cnc(C3(O)CCC4(C)C(=O)CCC4(O)C3)s2)c1 (centres unmarked) [Example 4B-26] | > 7.00
34 | Cc1cc(Nc2nccc(C(F)(F)F)n2)cc(-c2cnc(C3(O)C[C@H]4CC(CC(=O)O)C[C@H]4C3)s2)c1 (some centres unmarked) [Example 4B-27] | > 7.00
35 | Cc1cc(Nc2nccc(C)n2)cc(-c2cnc(C3(O)C4CC5CC3CC(O)(C5)C4)s2)c1 (centres unmarked) [Example 4B-29] | > 7.00
36 | Cc1cc(Nc2nccc(C)n2)cc(-c2cnc([C@]3(O)[C@H]4CC5C[C@H]3C[C@](C(=O)O)(C5)C4)s2)c1 [Example 4B-30] | > 7.00
37 | Cc1cc(Nc2nccc(C)n2)cc(-c2cnc([C@]3(O)[C@@H]4CC5C[C@@H]3C[C@](C(=O)O)(C5)C4)s2)c1 [Example 4B-31] | > 7.00
38 | Cc1cc(Nc2nccc(C)n2)cc(-c2cnc(C3(O)CC4(C(=O)O)CCC3(C)C4(C)C)s2)c1 (centres unmarked) [Example 4B-32] | > 7.00
39 | Cc1cc(Nc2nccc(C(F)(F)F)n2)cc(-c2cnc(C3(O)C4CC5C(C4C(=O)O)C53)s2)c1 (centres unmarked) [Example 4B-36] | > 7.00
40 | Cc1cc(Nc2nccc(C(F)(F)F)n2)cc(-c2cnc(C3(O)CC4(O)CCC3(C)CC4)s2)c1 (centres unmarked) [Example 4B-41] | > 7.00
41 | Cc1cc(Nc2nccc(C(F)(F)F)n2)cc(-c2cnc(C3(O)C4CC5CC3CC(O)(C5)C4)s2)c1 (centres unmarked) [Example 4B-42] | > 7.00
42 | Cc1cc(Nc2nccc(C(F)(F)F)n2)cc(-c2cnc(C3(O)C4CC5CC(C4)C(C(=O)O)C3C5)s2)c1 (centres unmarked) [Example 4B-43] | > 7.00

Row | SMILES | pIC50
43 | Cc1cc(Nc2nccc(C(F)(F)F)n2)cc(-c2cnc(C3(O)CC4(C(=O)O)CCC3(C)C4(C)C)s2)c1 (centres unmarked) [Example 4B-49] | > 7.00
44 | CC(=O)NC12CC3CC(C1)C(O)(c1ncc(-c4cc(C)cc(Nc5nccc(C(F)(F)F)n5)c4)s1)C(C3)C2 (centres unmarked) [Example 4B-51] | > 7.00
45 | Cc1cc(Nc2nccc(C(F)(F)F)n2)cc(-c2cnc(C3(O)C=CCCCC3)s2)c1 (centres unmarked) [Example 4B-55] | > 7.00
46 | CCOC(=O)C1CCC(O)(c2ncc(-c3cc(C)cc(Nc4nccc(C(F)(F)F)n4)c3)s2)C(C)C1C (centres unmarked) [Example 4B-57] | > 7.00
47 | Cc1cc(Nc2nccc(C)n2)cc(-c2cnc(C3(C)OC(=O)CC3(C)C)s2)c1 (centres unmarked) [Example 4B-58] | > 7.00
48 | Cc1cc(Nc2nccc(C(F)(F)F)n2)cc(-c2cnc(C3CCC(=O)O3)s2)c1 (centres unmarked) [Example 4B-60] | > 7.00
49 | Cc1cc(Nc2nccc(C(F)(F)F)n2)cc(-c2cnc(C3(C)OC(=O)CC3(C)C)s2)c1 (centres unmarked) [Example 4B-61] | > 7.00
50 | OC1(c2ncc(-c3cccc(Nc4nccc(C(F)(F)F)n4)c3)s2)CCCCCC1 [Example 4C-1] | > 7.00
51 | Cc1cc(Nc2nccc(C)n2)cc(-c2cnc(C3(O)CCC(CN)CC3)s2)c1 (centres unmarked) [Example 4C-2] | > 7.00
52 | Cc1cc(Nc2nccc(C)n2)cc(-c2cnc(C3(O)CCC(CN)CC3)s2)c1 (centres unmarked) [Example 4C-3] | > 7.00
53 | Cc1cc(Nc2nccc(C(F)(F)F)n2)cc(-c2cnc(C3(O)CCC(CCN)CC3)s2)c1 (centres unmarked) [Example 4C-5] | > 7.00
54 | Cc1cc(Nc2nccc(C)n2)cc(-c2cnc(C3(O)CCC(CO)CC3)s2)c1 (centres unmarked) [Example 4C-9] | > 7.00
55 | Cc1cc(Nc2nccc(C)n2)cc(-c2cnc(C3(O)CCC(N)(C(=O)O)CC3)s2)c1 (centres unmarked) [Example 4C-10] | > 7.00
56 | COC(=O)C1CCC(O)(c2ncc(-c3cc(C)cc(Nc4nccc(C)n4)c3)s2)CC1C(C)C (centres unmarked) [Example 4C-17] | > 7.00
57 | Cc1cc(Nc2nccc(C(F)(F)F)n2)cc(-c2cnc(C3(O)CCC(C4(N)CC4)CC3)s2)c1 (centres unmarked) [Example 4C-19] | > 7.00
58 | Cc1cc(Nc2nccc(C(F)(F)F)n2)cc(-c2cnc(C3(O)CCC(C4(N)CC4)CC3)s2)c1 (centres unmarked) [Example 4C-20] | > 7.00
59 | Cc1cc(Nc2nccc(C(F)(F)F)n2)cc(-c2cnc(C3(O)CCCC(C)(CC(=O)O)C3)s2)c1 (centres unmarked) [Example 4C-22] | > 7.00
60 | Cc1cc(Nc2nccc(C(F)(F)F)n2)cc(-c2cnc(C3(O)CCCC(C)(CC(=O)O)C3)s2)c1 (centres unmarked) [Example 4C-23] | > 7.00
61 | CCOC(=O)C1CCC(O)(c2ncc(-c3cc(C)cc(Nc4nccc(C)n4)c3)s2)CC1c1ccccc1C (centres unmarked) [Example 4C-27] | 6.00 to 7.00
62 | CCOC(=O)C1CCC(O)(c2ncc(-c3cc(C)cc(Nc4nccc(C)n4)c3)s2)CC1c1ccc(F)cc1 (centres unmarked) [Example 4C-28] | 6.00 to 7.00
